Data on 16 compounds can be found in PubChem BioAssay (NCI).

What all share (experiment): NCI anticancer screen, dose series, 48 h
For assay [1], the system named is SN12C renal.
Assay [2] deals with SW-620 colon.
Assay [3] has as its system OVCAR-8 ovarian.
Assay [4] concerns MOLT-4 leukemia.
For assay [5], the system named is ACHN renal.
The test system of assay [6] is DU-145 prostate.
The test system of assay [7] is HT29 colon.
Assay [8] has as its system HCT-116 colon.
For assay [9], the system named is CAKI-1 renal.
The subject of assay [10] is T-47D breast.
In assay [11] the test system is MCF7 breast.
Assay [12] deals with PC-3 prostate.
The test system of assay [13] is A549 NSCLC.
For assay [14], the system named is HCT-15 colon.
Assay [15] has as its system OVCAR-4 ovarian.
In assay [16] the test system is SK-MEL-2 melanoma.
Assay [17] has as its system M14 melanoma.
Assay [18] has as its system NCI-H23 lung.
Assay [19] has as its system RPMI-8226 leukemia.
For assay [20], the system named is BT-549 breast.

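The compound was tested at five concentrations on cells cultured in 96-well plates, with a 48-hour exposure period. At the TGI there is no net growth.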

Take `CCOC(=O)c1ccc(NCc2ccc3oc(=O)c(-c4ccccc4)nc3c2)cc1`: the TGI in assay [1] was over 100 µM; in assay [2], 50.4 µM; in [3] it was 65 µM; in assay [4], 60.4 µM; in [5], over 100 µM; in assay [6], over 100 µM. Further, the TGI in assay [7] was over 100 µM; in assay [8] it was 80.3 µM; in assay [9] it was 52.5 µM; in [10], 34.1 µM; in assay [11] it was 38 µM; in assay [12], over 100 µM. Also, the TGI is over 100 µM in [13]; over 100 µM in [14]; 54.1 µM in assay [15]; over 100 µM in assay [16]; over 100 µM in assay [17]; 44.5 µM in assay [18].
With `CC(CC[C@@]1(C)C(=O)CCC2O[C@]21C)[C@H]1C[C@@H](c2ccoc2)OC1=O` (some centres undefined), the TGI in [1] is 79.9 µM; in [2], 91.8 µM; in assay [4], 84.7 µM; in assay [5], 48 µM; in [6], over 100 µM; in [7], over 100 µM. Moreover, the TGI in [8] is 38.4 µM; in [9], 71.8 µM; in assay [10], over 100 µM; in assay [11], over 100 µM; in assay [12] it was over 100 µM; in assay [13], over 100 µM. In addition, the TGI was over 100 µM in assay [14]; 55.3 µM in assay [15]; over 100 µM in [16]; over 100 µM in assay [17]; 88.7 µM in assay [19]; over 100 µM in assay [18].
For `CSc1cc(Cl)c(C)cc1S(=O)(=O)NC(=O)NNc1cccc(C(F)(F)F)n1`, the TGI is over 100 µM in [1]; over 100 µM in assay [2]; over 100 µM in assay [3]; 51.8 µM in assay [4]; over 100 µM in [5]; over 100 µM in assay [6]. Further, the TGI in assay [7], in [8], in [9], in assay [10], in [11] and in assay [12] was over 100 µM each time. For the same compound, the TGI in assay [13], in [14], in [15], in [16] and in assay [17] was over 100 µM in each case.
For `O=C(c1cccs1)N1CCc2ccccc2C1`, the TGI in assay [1], in assay [2], in assay [4], in assay [5], in assay [6] and in assay [7] was over 100 µM in each case. Further, the TGI in assay [8], in [9], in [10], in assay [11], in [12] and in assay [13] was over 100 µM throughout. Also, the TGI in assay [14], in [16], in assay [17], in assay [19] and in [18] was over 100 µM throughout.
`CC(=O)OC1C(Oc2c(C)cc3c(c2O)[C@@H](C)CC[C@@H]3[C@@H](C)CCC=C(C)C)OCC(O)C1O` (some centres undefined): the TGI in [1] came out at 32.2 µM; in assay [2] it was 33.8 µM; in assay [3] it was 47.4 µM; in assay [4], 49.7 µM; in assay [5], 35.5 µM; in [6] it was 29.8 µM. Moreover, the TGI in assay [7] came to 27.6 µM; in assay [8] it was 32.2 µM; in assay [9], 36 µM; in assay [10] it was 43.5 µM; in assay [11] it was 42.5 µM; in [12], 39.6 µM. Besides, the TGI in assay [13] was determined as 30.2 µM; in [14], 34.1 µM; in assay [16], 45.2 µM; in assay [17] it was 30.9 µM; in assay [18], 34.3 µM.
Regarding `CCOC1=NC(O)c2cccn2-c2sccc21` (centres undefined), the TGI in assay [1], in assay [2], in assay [3], in [4], in assay [5] and in assay [6] was over 100 µM in each case. Also, the TGI in assay [7], in assay [8], in [9], in [10], in assay [11] and in assay [12] was over 100 µM each time. The TGI in [13], in assay [14], in assay [15], in assay [16], in [17] and in assay [19] was over 100 µM each time. This compound also gave a TGI in [18] of over 100 µM.
On to `CCOC(C)O[C@H]1C(=O)OCC1(C)C` (some centres undefined), for which the TGI in assay [2], in assay [3], in [4], in assay [5], in [6] and in assay [7] was over 100 µM each time. Also, the TGI in assay [9], in assay [10], in [11], in assay [12], in assay [13] and in assay [14] was over 100 µM in each case. Also, the TGI in assay [15], in assay [16], in assay [17], in assay [19] and in assay [18] was over 100 µM in each case.
`O=c1c2ccccc2nc(Cc2nc(-c3ccc(Cl)cc3)cs2)n1-c1ccc(Cl)cc1`: the TGI in assay [2], in assay [3], in assay [20], in [4], in assay [5] and in assay [6] was over 100 µM each time. Further, the TGI in assay [7], in [8], in assay [9], in [11], in assay [12] and in assay [13] was over 100 µM in each case. The TGI in assay [14] is over 100 µM; in assay [15], over 100 µM; in assay [16], over 100 µM; in assay [17], over 100 µM; in assay [19] it was 83.9 µM; in assay [18], over 100 µM.
As to `Cn1c([C@H](C#N)c2ncccc2[N+](=O)[O-])nc2ccccc21`, the TGI in assay [2], in assay [3], in assay [20], in assay [4], in assay [5] and in assay [7] was over 100 µM in each case. The TGI in assay [8], in [9], in assay [11], in assay [12], in [13] and in [14] was over 100 µM each time. For the same compound, the TGI in assay [16], in assay [17], in assay [19] and in assay [18] was over 100 µM in each case.
As to `CC1(C)/C(=C/N=O)N(O)C(C)(C)N1O`, the TGI in assay [1], in [2], in assay [3], in [5], in assay [6] and in [7] was over 100 µM throughout. Besides, the TGI in assay [8], in assay [9], in [10], in [11], in [12] and in [13] was over 100 µM in each case. For the same compound, the TGI in [14], in assay [15], in assay [16], in [17], in assay [19] and in assay [18] was over 100 µM in each case.
As to `O=C1CC(c2cccc([N+](=O)[O-])c2)C2(C(=O)NC(=O)NC2=O)C(c2cccc([N+](=O)[O-])c2)C1` (centres undefined), the TGI in assay [1], in [2], in assay [3], in [20], in [4] and in assay [5] was over 100 µM each time. For the same compound, the TGI in [6] is over 100 µM; in [7], over 100 µM; in assay [8], 42.8 µM; in assay [11] it was 44 µM; in [12], over 100 µM; in assay [13] it was over 100 µM. The TGI in assay [14], in assay [15], in assay [16], in [17], in [19] and in [18] was over 100 µM each time.
With `Cc1ccc2c(c1)CC1(Cc3ccccc3C1=O)C2=O` (centres undefined), the TGI in assay [1], in assay [2], in assay [3], in assay [4], in assay [5] and in [6] was over 100 µM throughout. For the same compound, the TGI in assay [7], in assay [8], in assay [10], in assay [11], in assay [12] and in [13] was over 100 µM in each case. The TGI in assay [14], in assay [15], in assay [17], in [19] and in [18] was over 100 µM in each case.
In the case of `CC1S/C(=N\N=C2/C(=O)Nc3ccc(Br)cc32)N(C2CCCCC2)C1=O` (centres undefined), the TGI in assay [1] was 12.3 µM; in assay [2], 46.3 µM; in assay [4], over 100 µM; in assay [5], 3.24 µM; in [6] it was 17.6 µM; in [7], 53.2 µM. Further, the TGI in assay [8] stood at 6.61 µM; in assay [9], 6.39 µM; in [10], 19.6 µM; in assay [11] it was 35 µM; in assay [12], 19.9 µM; in assay [13] it was 12.6 µM. The TGI in [14] is 16 µM; in assay [15], 4.89 µM; in [16] it was 3.65 µM; in assay [17], 22.7 µM; in assay [19] it was over 100 µM; in assay [18], 15.6 µM.
Consider `C(/C=C/Nc1ccc(Oc2ccccc2)cc1)=Nc1ccc(Oc2ccccc2)cc1`, for which the TGI in assay [1] came out at 27.9 µM; in assay [2] it was 34.6 µM; in [3] it was 38.8 µM; in [20] it was 29.3 µM; in assay [5], 50.9 µM; in assay [6] it was 39.5 µM. Further, the TGI was 29.7 µM in assay [7]; 31.2 µM in assay [8]; 32.7 µM in assay [9]; 31.1 µM in assay [11]; 28.4 µM in assay [12]; 42 µM in assay [13]. Further, the TGI in assay [14] was 33.6 µM; in assay [15], 32.8 µM; in assay [19] it was 54.1 µM; in assay [18], 48.7 µM.
As for `O=C1c2ccsc2C(=O)c2sc(CO)cc21`, the TGI in assay [1] is 0.0818 µM; in [2], 0.164 µM; in [3] it was 0.38 µM; in assay [20] it was 0.0352 µM; in assay [4], over 100 µM; in [5], 0.238 µM. Moreover, the TGI in assay [7] is 0.444 µM; in [8], 0.279 µM; in assay [9] it was 9.69 µM; in assay [12], 1.78 µM; in assay [13] it was 0.125 µM; in assay [14], 0.102 µM. Also, the TGI in assay [15] is 0.31 µM; in [16], 0.232 µM; in assay [17], under 0.0154 µM; in [18] it was 0.394 µM.
For the compound `CC(=O)ONC(C(=O)C(C)(C)C)C(=O)C(C)(C)C`, the TGI in assay [1], in assay [2], in assay [3], in assay [4], in assay [5] and in assay [6] was over 100 µM in each case. The TGI in [7], in assay [8], in [9], in assay [10], in [11] and in assay [12] was over 100 µM throughout. Also, the TGI in assay [13], in assay [14], in assay [15], in assay [16], in [17] and in assay [19] was over 100 µM in each case. For the same compound, the TGI in [18] was over 100 µM.
